Test results as given in patent US4875922A, “Pyrimidine derivatives” (Imperial Chemical Industries PLC, priority 1986, dated 1989).

Assays:
Barley [1] = experiment: Modified Intermediate Retardant Test, barley; assay type: in vivo, Barley (Atem); conditions: 2000 g/ha, overall spray, height to topmost ligule 21 days after treatment
Excerpt: (§1) The general Intermediate Retardant Test described in Example 62 was modified by the addition of Sunflowers (SR) and the variety and growth stages at spray are outlined in Table XIII. Apart from the changes indicated, growing conditions for barley, rice and apples were as in Example 62 and growing conditions for Sunflower were as for apples. Test compounds were applied to barley, rice and apples as whole plant (overall) sprays at a rate of 2000 g/ha. Test compounds were applied to sunflowers separately as a foliar only spray at a rate of 2000 g/ha and as a root drench at a rate of 2000 g/ha.
(§2) Barley and rice were assessed for height to topmost ligule 21 days after treatment; apples were assessed for height to apex at 21 days after treatment; and sunflowers were assessed for height to apex at 14 days after treatment. The results are expressed as percentage reduction in height compared with the formulation blank in Table XIV.

Apple = experiment: Modified Intermediate Retardant Test, apples; assay type: in vivo, Apple (Red Delicious); conditions: 2000 g/ha, overall spray, height to apex 21 days after treatment
Excerpt: as §1, §2

Rice = experiment: Modified Intermediate Retardant Test, rice; assay type: in vivo, Rice (Ishikari); conditions: 2000 g/ha, overall spray, height to topmost ligule 21 days after treatment
Excerpt: as §1, §2

Wheat = experiment: Whole plant screen for plant growth regulator activity, wheat (WW); assay type: in vivo, Wheat (Timmo)
In short: (§3)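 Compounds sprayed at 4000 ppm (4 kg/ha in 1000 l/ha) by tracksprayer at a defined leaf stage. Plants then grown in glasshouse at 25° C. day/22° C. night (wheat and barley 16° C. day/13° C. night), 16 hour photoperiod. Morphology visually assessed after 2-6 weeks against formulation blanks.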

Sunflower = experiment: Modified Intermediate Retardant Test, sunflower; assay type: in vivo; conditions: 2000 g/ha, height to apex 14 days after treatment; for […] IN HEIGHT, SR (Foliar): foliar only spray; for […] IN HEIGHT, SR (Root): root drench
Excerpt: as §1, §2

Tomato = experiment: Whole plant screen for plant growth regulator activity, tomato (TO); assay type: in vivo, Tomato (Ailsa Craig); conditions: 4000 ppm (4 kg/ha), visual score after 2-6 weeks
In short: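 Tomato (Ailsa Craig), one plant per 3-inch peat pot, sprayed at 2–2½ leaves with 4000 ppm (4 kg/ha in 1000 l/ha) by track sprayer. Glasshouse 25 °C day/22 °C night, 16 h photoperiod; morphology visually scored after 2–6 weeks against formulation blanks.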

Barley [2] = experiment: Whole plant screen for plant growth regulator activity, barley (BR); assay type: in vivo, Barley (Atem); conditions: BR, 4000 ppm (4 kg/ha), visual score after 2-6 weeks; for T = Tillering or side shooting: * = decrease in tillering
In short: as §3

[3] = WW, 4000 ppm (4 kg/ha), visual score after 2-6 weeks

CCCCCCC#CC(O)(c1cncnc1)C(C)C (stereo not shown) [Compound 24]
[…] IN HEIGHT, BR (Barley [1]): 6% | […] IN HEIGHT, AP (Apple): 37% | […] IN HEIGHT, RC (Rice): 17% | G = Greening effect (Wheat; [3]): 2 (31-60%) | R = Retardation (Wheat; [3]): 1 (10-30%) | […] IN HEIGHT, SR (Foliar) (Sunflower): 0% | […] IN HEIGHT, SR (Root) (Sunflower): 3% | G = Greening effect (Tomato): 2 (31-60%) | R = Retardation (Tomato): 1 (10-30%) | I = Interligular or internodal length reduction (Barley [2]): 2 (31-60%) | R = Retardation (Barley [2]): 2 (31-60%) | T = Tillering or side shooting (Barley [2]): 2*

CCCCC#CC(O)(c1cncnc1)C(C)(C)C (stereo not shown) [Compound 31]
[…] IN HEIGHT, BR (Barley [1]): 69% | […] IN HEIGHT, AP (Apple): 50% | […] IN HEIGHT, RC (Rice): 77% | A = Apical damage (Wheat; 4000 ppm): 1 (10-30%) | G = Greening effect (Wheat; [3]): 3 (61-100%) | I = Interligular or internodal length reduction (Wheat; [3]): 3 (61-100%) | T = Tillering or side shooting (Wheat; WW, 4000 ppm (4 kg/ha), visual score after 2-6 weeks, * = decrease in tillering): 1 (10-30%) | […] IN HEIGHT, SR (Foliar) (Sunflower): 19% | […] IN HEIGHT, SR (Root) (Sunflower): 51% | G = Greening effect (Tomato): 2 (31-60%) | I = Interligular or internodal length reduction (Tomato): 3 (61-100%) | R = Retardation (Tomato): 3 (61-100%) | G = Greening effect (Barley [2]): 3 (61-100%) | I = Interligular or internodal length reduction (Barley [2]): 3 (61-100%) | R = Retardation (Barley [2]): 3 (61-100%) | T = Tillering or side shooting (Barley [2]): 1 (10-30%)

CCC/C=C\C(O)(c1cncnc1)C(C)C (stereo not shown) [Compound 25, 2-methyl-1-(pent-1-ene)-1-(pyrimidin-5-yl)-propan-1-ol]
[…] IN HEIGHT, BR (Barley [1]): 52% | […] IN HEIGHT, AP (Apple): 31% | […] IN HEIGHT, RC (Rice): 55% | G = Greening effect (Wheat; [3]): 2 (31-60%) | I = Interligular or internodal length reduction (Wheat; [3]): 1 (10-30%) | R = Retardation (Wheat; [3]): 1 (10-30%) | […] IN HEIGHT, SR (Foliar) (Sunflower): 0% | […] IN HEIGHT, SR (Root) (Sunflower): 54% | G = Greening effect (Tomato): 2 (31-60%) | I = Interligular or internodal length reduction (Tomato): 1 (10-30%) | R = Retardation (Tomato): 1 (10-30%) | G = Greening effect (Barley [2]): 3 (61-100%) | I = Interligular or internodal length reduction (Barley [2]): 3 (61-100%) | R = Retardation (Barley [2]): 3 (61-100%) | T = Tillering or side shooting (Barley [2]): 1*
